Entries after “also recorded” stand apart in the source; their conditions may differ. Like-named read-outs stand apart in the source and are kept apart here.
Columns and labels:
[1] = system: HeLa (cervical adenocarcinoma); experiment: MTT cancer cell growth assay, HeLa; type: cell-based, human; conditions: for CC50: read-out: CC50 HeLa
Method: (§1) HeLa (Human Cervical Adenocarcinoma), HCT116 (Human Colorectal Carcinoma) and 1205Lu (Human Melanoma) cells (all from ATCC) were maintained in DMEM containing 10% fetal bovine serum. 12–16 hours prior to drug treatment, 3×10^3 to 5×10^3 cells were seeded on each well of 96-well tissue culture plates. Drugs were diluted in DMEM containing 10% fetal bovine serum and applied to the cells. 72 hours after drug treatment, 20 µl of MTT solution (5 mg/ml in PBS) was added into each well, followed by shaking the plates at 150 rpm for 5 minutes and an incubation of 4 hours (37°C, 5% CO2). Media was removed, plates dried and each well was resuspended in 100 µl MTT formazan/DMSO. The absorbance of each well was recorded at 560 nm on GloMax®-Multi+ Detection System (Promega).

[2] = system: pp28-luciferase Towne CMV; experiment: microbe, parasite or virus in culture; type: cell-based, human cytomegalovirus; conditions: for SI (selectivity index, ratio of CC50 to EC50): CC50 in HFF / anti-CMV EC50; for EC50: Human betaherpesvirus 5; for inhibition of late pp28 gene expression (luciferase activity): 72 hpi; for difference in SI versus parent alcohol: 838 vs 606, 832-4 vs 760
Text: The pp28-luciferase Towne strain was constructed as previously described. Briefly, the recombinant virus, which expresses luciferase under the control of UL99 (pp28) late promoter was generated by insertion of the reporter gene between the US9 and US10 open reading frames (ORFs) in the Towne genome. […] The ganciclovir (GCV)-resistant strain was obtained from a patient with CMV disease. […] This clinical isolate was provided by the clinical virology laboratory with no identifiers that can link to a specific subject. The Johns Hopkins Office of Human Subject Research Institutional Review Board determined that this research qualified for an exemption.
(§2) Human Foreskin Fibroblasts (HFF) passage 12–16 (ATCC, CRL-2088™) were grown in Dulbecco's Modified Eagle Medium (DMEM) containing 10% fetal bovine serum (Gibco, Carlsbad, CA) in a 5% CO2 incubator at 37°C and used for infections with pp28-luciferase Towne CMV or the GCV-resistant strain. One day prior to infection with the pp28-luciferase, 4×10^4 HFF cells were seeded on each well of 24-well tissue culture plates. Infection was carried out at multiplicity of infection of 1 PFU/cell (MOI = 1). Following 90 minute adsorption, media containing virus was removed and replaced by DMEM with 4% fetal bovine serum (Gibco, Carlsbad, CA) containing anti-viral compounds. The concentration of each compound was calculated and adjusted by volume such that it was constant throughout the experiment.
(§3) Infected and treated HFF cells were collected 72 hpi and washed once with PBS. The lysates were assayed for luciferase and cell viability using a Luciferase Assay Kit (Promega, Madison, WI) and CellTiter-Glo Luminescent Cell Viability Assay Kit, respectively, on GloMax®-Multi+ Detection System (Promega) according to manufacturer's instructions.

[3] = system: HCT116 (colorectal carcinoma); experiment: MTT cancer cell growth assay, HCT116; type: cell-based, human; conditions: for CC50: read-out: CC50 HCT116
Method: as §1

1205Lu (melanoma) = experiment: MTT cancer cell growth assay, 1205Lu; type: cell-based, human; conditions: for CC50: read-out: CC50 1205Lu
Method: as §1

[4] = CellTiter-Glo Luminescent Cell Viability assay in HFF; type: cell-based; conditions: human
Method: as §2, §3

[5] = system: GCV-resistant CMV strain (UL97 mutation H520Q); experiment: Plaque reduction assay, GCV-resistant CMV strain; type: cell-based, human cytomegalovirus; conditions: for inhibition of plaque formation, GCV-resistant CMV strain: 0.1 µM, plaques counted 21 days after infection
Text: The pp28-luciferase Towne strain was constructed as previously described. Briefly, the recombinant virus, which expresses luciferase under the control of UL99 (pp28) late promoter was generated by insertion of the reporter gene between the US9 and US10 open reading frames (ORFs) in the Towne genome. […] We have recently reported that the pp28-luciferase reporter system is sensitive, reproducible and highly correlates with plaque reduction. The ganciclovir (GCV)-resistant strain was obtained from a patient with CMV disease. […] This clinical isolate was provided by the clinical virology laboratory with no identifiers that can link to a specific subject. The Johns Hopkins Office of Human Subject Research Institutional Review Board determined that this research qualified for an exemption.
Human lung fibroblasts (HEL) passage 8–12 (ATCC, CCL-137™) were grown in DMEM containing 10% fetal bovine serum. One day prior to infection, 3×10^5 cells were seeded on each well of 12-well tissue culture plates. GCV-resistant CMV was diluted in DMEM to a desired concentration which gave around 100 plaques per well and added to each well in duplicates. Plates were incubated for 90 minutes with shaking every 10 min; thereafter drugs were added and a methylcellulose overlay applied to each well. After incubation for 21 days, cells were stained with crystal violet and plaques were counted under microscope at 40× magnification.

HFF = experiment: CellTiter-Glo Luminescent Cell Viability assay in HFF; type: cell-based
Method: as §2, §3

[6] = Homo sapiens, HeLa, MTT 72 hr after treatment
[7] = Homo sapiens, HCT-116, MTT 72 hr after treatment
[8] = Homo sapiens, 1205Lu, MTT 72 hr after treatment
[9] = HFF, 72 h, measured at 1 µM to 100 µM, read-out: CC50

Row | SMILES | CC50 [1, 6] [µM] | SI (selectivity index, ratio of CC50 to EC50) [2] | EC50 [2] [µM] | CC50 [3, 7] [µM] | CC50 (1205Lu (melanoma); [8]) [µM] | inhibition of late pp28 gene expression (luciferase activity) ([2]; 0.1 µM) | other results
1 | CC1CCC2C(C)C(CC(CC3OC4OC5(C)CCC6C(C)CCC(C3C)C46OO5)CS(=O)(=O)c3ccc(CO)cc3)OC3OC4(C)CCC1C32OO4 (centres unmarked) [compound 760, Dimer isobu-SO2Ph-4-CH2OH] | 0.56 ± 0.18 | 34.5±2 | 0.14 ± 0.008 | 0.07 ± 0.005 | 0.1 ± 0.006 | – | CC50 at 72 h [4]: 4.9 ± 0.2 µM
2 | CC1CCC2C(C)C(CC(COP(=O)(Oc3ccccc3)Oc3ccccc3)CC3OC4OC5(C)CCC6C(C)CCC(C3C)C46OO5)OC3OC4(C)CCC1C32OO4 (centres unmarked) [compound 838, Dimer isobu-OP(O)(OPh)2] | – | – | 0.04 ± 0.003 | – | – | highly inhibitory | inhibition of plaque formation, GCV-resistant CMV strain [5]: fully inhibited; also recorded: highly active; potency in inhibiting growth versus artesunate, HeLa [1]: 37 fold; CC50 ([1]; Homo sapiens, HeLa, 72 h): 0.19 ± 0.08 µM; SI versus artesunate [2]: 134 fold; anti-CMV potency versus artesunate (using EC50 values) [2]: 165 fold; difference in SI versus parent alcohol [2]: 5 fold; potency in inhibiting growth versus artesunate, HCT116 [3]: at least 200 fold; CC50 ([3]; Homo sapiens, HCT-116, 72 h): 0.04 ± 0.005 µM; potency in inhibiting growth versus artesunate, 1205Lu (1205Lu (melanoma)): at least 200 fold; CC50 (1205Lu (melanoma); Homo sapiens, 1205Lu, 72 h): 0.06 ± 0.002 µM; CC50 at 72 h [4, 9]: 55.8 ± 2.8 µM; cellular toxicities at concentrations of complete CMV inhibition (HFF; HFF): not observed
3 | Nc1nc(O)c2ncn(COC(CO)CO)c2n1 [GCV, Ganciclovir, reference compound] | > 50 | 96±14 | 2.7 ± 0.1 | > 50 | > 50 | no inhibition at all | plaque formation, GCV-resistant CMV strain ([5]; GCV at 5 µM, 21 days): obvious resistance; EC50 ([5]; Human betaherpesvirus 5, read-out: EC50 of GCV for the GCV-resistant strain): 7.6 µM; CC50 at 72 h [4, 9]: 247 ± 33.4 µM
4 | C[C@H]1[C@H](OC(=O)CCC(=O)O)O[C@@H]2O[C@@]3(C)CC[C@H]4[C@H](C)CC[C@@H]1[C@@]24OO3 [artesunate, Artesunate, reference compound] | 7.1 ± 0.4 | 11±0.9 | 6.6 ± 0.4 | 11.3 ± 0.6 | 42 ± 2.4 | – | CC50 at 72 h [4, 9]: 71.7 ± 4 µM
5 | CC1CCC2C(C)C(CCCS(=O)(=O)c3ccc(COC(=O)N(C)C)cc3)OC3OC4(C)CCC1C32OO4 (centres unmarked) [compound 551, Art-PrSO2Ph-4-CH2OC(O)NMe2] | – | – | – | – | – | – | inhibition of late pp28 gene expression (luciferase activity) ([2]; 1 µM): did not
6 | CC1CCC2C(C)C(CC(CC3OC4OC5(C)CCC6C(C)CCC(C3C)C46OO5)CS(=O)(=O)c3ccc(COC(=O)N(C)C)cc3)OC3OC4(C)CCC1C32OO4 (centres unmarked) [832-4, Dimer isobu-SO2Ph-4-CH2OC(O)NMe2] | 0.27 ± 0.03 | – | 0.07 ± 0.004 | 0.07 ± 0.006 | 0.13 ± 0.007 | highly inhibitory | inhibition of plaque formation, GCV-resistant CMV strain [5]: fully inhibited; effectiveness in CMV inhibition versus monomer 551 [2]: at least 150 fold; difference in SI versus parent alcohol [2]: 30 fold; CC50 at 72 h [4]: 57.5 ± 2.9 µM; cellular toxicities at concentrations of complete CMV inhibition (HFF): not observed
7 | CC1CCC2C(C)C(CC(CO)CC3OC4OC5(C)CCC6C(C)CCC(C3C)C46OO5)OC3OC4(C)CCC1C32OO4 (centres unmarked) [compound 606, Dimer isobu-OH] | 1.06 ± 0.2 | 292±21 | 0.16 ± 0.008 | 0.1 ± 0.001 | 4.9 ± 0.04 | – | CC50 at 72 h [4]: 48.1 ± 2.6 µM
8 | CC1CCC2C(C)C(CC(CC3OC4OC5(C)CCC6C(C)CCC(C3C)C46OO5)CS(=O)(=O)c3cccc(COC(=O)N(C)C)c3)OC3OC4(C)CCC1C32OO4 (centres unmarked) [832-3, Dimer isobu-SO2Ph-3-CH2OC(O)NMe2] | – | – | – | – | – | not active | inhibition of late pp28 gene expression (luciferase activity) ([2]; 0.3 µM): active
9 | CC1CCC2C(C)C(CC(CSc3cccc(COC(=O)N(C)C)c3)CC3OC4OC5(C)CCC6C(C)CCC(C3C)C46OO5)OC3OC4(C)CCC1C32OO4 (centres unmarked) [800-3, Dimer isobu-SPh-3-CH2OC(O)NMe2] | – | – | – | – | – | not active | inhibition of late pp28 gene expression (luciferase activity) ([2]; 0.3 µM): active
10 | CC1CCC2C(C)C(CC(CSc3ccc(COC(=O)N(C)C)cc3)CC3OC4OC5(C)CCC6C(C)CCC(C3C)C46OO5)OC3OC4(C)CCC1C32OO4 (centres unmarked) [800-4, Dimer isobu-SPh-4-CH2OC(O)NMe2] | – | – | – | – | – | not active | inhibition of late pp28 gene expression (luciferase activity) ([2]; 0.3 µM): active
11 | C[C@H]1[C@@H](CCC(=O)Nc2ccc(F)cc2)O[C@@H]2OC3(C)CC[C@H]4[C@H](C)CC[C@@H]1[C@@]24OO3 [Artefanilide] | – | – | – | – | – | – | CC50 ([1]; MTT 72 hr after treatment): > 50 µM; CC50 ([3]; MTT 72 hr after treatment): 40 ± 7.9 µM; CC50 (1205Lu (melanoma); MTT 72 hr after treatment): > 50 µM; CC50 (HFF): 44.9 ± 3.4 µM

From paper PMC3164168 (PLoS ONE, 2011)
